From patent US7772192B2, “Compositions and methods for treatment of disease with acetylated disaccharides” (The Regents of the University of California, priority 2003, dated 2010)

Experiments:
LLC cells = assay: Experimental metastasis of pretreated LLC cells; type: in vivo, mice; settings: cells treated 4 days, Es1(e) mice, 3 weeks
Procedure: (A) LLC cells were treated in culture for 4 days with peracetylated GlcNAcβ3Gal-NM or vehicle (DMSO/propylene glycol, v/v 1:1). Single-cell suspensions (2×10^5) were injected in the tail-veins of Es1(e) mice. After 3 weeks, the mice were sacrificed and the number of tumors present on the surface of the lungs was determined by visual inspection.
LLC cells were treated in culture for 5 days with 4-deoxy AcGnG-NM, AcGnG-NM or vehicle (DMSO:propylene glycol) and then a single-cell suspension (2×10^5 cells) was injected in the tail vein of mice. After 3 weeks, the number of tumors present on the surface of the lungs was determined.

[1] = system: mucin-like oligosaccharides that carry sLe^X determinants; settings: among several disaccharides; cited from earlier work
U937 cells = assay: sLe^X expression in U937 cells; type: cell-based
Source text: A 4-deoxy modified acetylated disaccharide inhibits sLe^X expression in the absence of oligosaccharide priming.

[2] = system: LLC cells adhering to recombinant P-selectin; assay: Adhesion of LLC cells to immobilized P-selectin; type: cell-based
Source text: LLC cells were “panned” onto wells precoated with recombinant P-selectin (R&D Systems, Minneapolis, M) as described (Brown et al., 2003; Fuster et al., Cancer Research 63: 2775-2781, 2003). The extent of adhesion was normalized to the value obtained for cells not treated with disaccharide. Controls included sialidase and anti-Ps monoclonal antibody treatment.

[3] = system: LS180 colon carcinoma cells; assay: Adhesion of activated human platelets to tumor cells (LS180); type: cell-based; settings: 50 μM, 3 days, thrombin-activated human platelets
Procedure: Adhesion of activated human platelets to tumor cells. Tumor cells were seeded into 6-well plates (5×10^4/well), and allowed to grow into colonies in the presence or absence of 50 μM AcGnG-NM. After 3 days, platelets were isolated from 15 ml of normal human blood collected into 20% (v/v) Acid-Citrate-Dextrose (ACD) anticoagulant. A platelet-rich plasma was prepared by centrifugation and repeated washing using PSG buffer (5 mM HEPES, pH 6.8, 145 mM NaCl, 4 mM KCl, 0.5 mM sodium phosphate, 5.5 mM glucose, 0.5% BSA, and 25 nM prostaglandin E1 [Sigma]). The platelets were then labeled with Calcein AM (5 μM), and counted with a hemocytometer. Wells containing tumor cells were washed with HBSS, and 3×10^6 platelets were added in 1 ml of HBSS followed by activation with human thrombin (0.8 IU/well; Sigma). The plates were rocked for 10 min, and the wells were washed twice with HBSS, fixed with 5% formalin in HBSS, and analyzed by fluorescence microscopy. […]
Platelets bound to tumor cells were visualized by fluorescence microscopy (Nikon Diaphot) equipped with a digital camera (Nikon) linked to an Apple Macintosh computer with Adobe Photoshop software. The fluorescence image showing the platelets was superimposed on a phase-contrast picture of the cells and the number of attached platelets was quantified. […]

Blood cell counts = type: in vivo

levels of blood cell components (Blood cell counts; in vivo): not affected
Lymphocytes (Blood cell counts; n = 13): 6.1 ± 2.1 K/μL
Neutrophils (Blood cell counts; n = 13): 1.5 ± 0.5 K/μL
Platelets (Blood cell counts; n = 13): 1031 ± 174 K/μL
Red Blood Cells (Blood cell counts; n = 13): 10.5 ± 0.9 M/μL
Total Leukocytes (Blood cell counts; n = 13): 7.8 ± 2.6 K/μL
Substance: GlcNAcβ1,3Galβ-O-naphthalenemethanol [AcGnG-NM]
tumors on the surface of the lungs (LLC cells): significantly fewer tumor foci
potency as primer [1]: highest potency
sLe^X expression (U937 cells): inhibit sLe^X expression
cell adhesion to immobilized P-selectin [2]: moderate reduction
reduction of platelet adhesion [3]: 60%
